Assay results from patent publication US20080146602A1, “Thienopyridine Derivatives, Production Method and Use Thereof” (TAKEDA PHARMACEUTICAL COMPANY LIMITED, priority 2004, published 2008).
Marks after values point to notes of the source that are not given here.

Experiments:
[1] = system: Adjuvant Arthritis in Rat; assay: Effect on adjuvant arthritis in rat (footpad swelling suppression); format: in vivo; conditions: male Lewis rat, Freund's complete adjuvant; 0.3 mg/kg orally once a day for 14 days; edema volume of left hind paw, Day 14; n=6
Experimental: Effect on Adjuvant Arthritis in Rat
A male Lewis rat (7-week-old, Crea Japan Ltd.) was sensitized by an intracutaneous injection of 0.05 ml of Freund's complete adjuvant: 0.5% liquid paraffin suspension of dead tubercle bacillus) into the footpad of the right hind paw, and the test compound suspended in 0.5% methyl cellulose was orally administered once a day for 14 days. Immediately before sensitization (Day 0) and 14th day (Day 14), the edema volume of the left hind paw was measured by a plethysmometer (manufactured by Ugo Basile, Italy) and the footpad swelling suppression rate (%) relative to unsensitized rat was determined by the following formula.
The results are shown in mean ±S.E. of each group (n=6) and compared and detected by the Dunnett's method. In addition, less than 5% of the critical rate was taken as significant.

melting point [°C] | Compound | Swelling suppression rate (%) [1]
– | COc1ccc(-c2c(Cl)c(CN3C(=O)CCC3=O)nc3sc4c(c23)CC[C@@H](C(N)=O)C4)cc1 (stereo in doubt) [Example 5-2, 3-chloro-2-[(2,5-dioxo-1-pyrrolidinyl)methyl]-5,6,7,8-tetrahydro-4-(4-methoxyphenyl)[1]benzothieno[2,3-b]pyridine-7-carboxamide] | 88* %
– | COc1ccc(-c2c(Cl)c(CN3C(=O)CSC3=O)nc3sc4c(c23)CC[C@@H](C(N)=O)C4)cc1 (stereo in doubt) [Example 6-2, 3-chloro-2-[(2,4-dioxo-1,3-thiazolidin-3-yl)methyl]-5,6,7,8-tetrahydro-4-(4-methoxyphenyl)[1]benzothieno[2,3-b]pyridine-7-carboxamide] | 87* %
– | COc1ccc(-c2c(Cl)c(CN3C(=O)COC3=O)nc3sc4c(c23)CC[C@H](C(N)=O)C4)cc1 [Example 4-2, (7S)-3-chloro-2-[(2,4-dioxo-1,3-oxazolidin-3-yl)methyl]-5,6,7,8-tetrahydro-4-(4-methoxyphenyl)[1]benzothieno[2,3-b]pyridine-7-carboxamide] | 82* %
299 to 300 | NC(=O)[C@H]1CCc2c(sc3nc(CN4C(=O)CCC4=O)c(Cl)c(-c4ccc(O)cc4)c23)C1 [Example 8, (7S)-3-Chloro-2-[(2,5-dioxo-1-pyrrolidinyl)methyl]-5,6,7,8-tetrahydro-4-(4-hydroxyphenyl)[1]benzothieno[2,3-b]pyridine-7-carboxamide] | –
282 to 283 | NC(=O)[C@H]1CCc2c(sc3nc(CN4C(=O)CSC4=O)c(Cl)c(-c4ccc(O)cc4)c23)C1 [Example 9, (7S)-3-Chloro-2-[(2,4-dioxo-1,3-thiazolidin-3-yl)methyl]-5,6,7,8-tetrahydro-4-(4-hydroxyphenyl)[1]benzothieno[2,3-b]pyridine-7-carboxamide] | –
